Measurements from ChEMBL document CHEMBL3045324, “5-phenyl-1-benzofuran-2-yl derivatives: synthesis, antimicrobial, and antioxidant activity” (2013).
In brackets after ≈: the same amount, converted by molar mass. Activity calls are given as the source filed them. The calls are words filed in the database; no cut-off is given here.

Key:
[1] = test system: Escherichia coli; experiment: Antibacterial activity against Escherichia coli NCTC 12923 assessed as growth inhibition after 24 hr; assay type: functional; settings: NCTC 12923, 24 h
[2] = test system: Escherichia coli; experiment: Antibacterial activity against Escherichia coli NCTC 12923 assessed as growth inhibition at 50 mg/mL after 24 hr; assay type: functional; settings: for zone of inhibition at 50000 µg/mL: NCTC 12923, 24 h, read-out: IZ
[3] = test system: Bacillus subtilis; experiment: Antibacterial activity against Bacillus subtilis NCTC 10400 assessed as growth inhibition at 50 mg/mL after 24 hr; assay type: functional; settings: for zone of inhibition at 50000 µg/mL: NCTC 10400, 24 h, read-out: IZ
[4] = test system: Candida albicans; experiment: Antifungal activity against Candida albicans NCPF 3179 assessed as growth inhibition at 50 mg/mL after 3 days; assay type: functional; settings: NCPF 3179, 72 h, read-out: IZ
[5] = test system: Staphylococcus aureus; experiment: Antibacterial activity against Staphylococcus aureus NCTC 10788 assessed as growth inhibition at 50 mg/mL after 24 hr; assay type: functional; settings: for zone of inhibition at 50000 µg/mL: NCTC 10788, 24 h, read-out: IZ
[6] = test system: Radical scavenging activity; experiment: Antioxidant activity assessed as DPPH radical scavenging activity at 1 mg/mL after 15 min UV-vis spectrophotometric analysis relative to control; assay type: functional
[7] = test system: Candida albicans; experiment: Antifungal activity against Candida albicans NCPF 3179 assessed as growth inhibition after 3 days; assay type: functional; settings: NCPF 3179, 72 h
[8] = test system: Bacillus subtilis; experiment: Antibacterial activity against Bacillus subtilis NCTC 10400 assessed as growth inhibition after 24 hr; assay type: functional; settings: NCTC 10400, 24 h
[9] = test system: Staphylococcus aureus; experiment: Antibacterial activity against Staphylococcus aureus NCTC 10788 assessed as growth inhibition after 24 hr; assay type: functional; settings: NCTC 10788, 24 h
[10] = test system: Bacillus subtilis; experiment: Antibacterial activity against Bacillus subtilis NCTC 10400 assessed as growth inhibition at 1 to 50 mg/mL after 24 hr; assay type: functional, organism-based
[11] = test system: Candida albicans; experiment: Antifungal activity against Candida albicans NCPF 3179 assessed as growth inhibition at 1 to 50 mg/mL after 3 days; assay type: functional, organism-based
[12] = test system: Escherichia coli; experiment: Antibacterial activity against Escherichia coli NCTC 12923 assessed as growth inhibition at 1 to 50 mg/mL after 24 hr; assay type: functional, organism-based
[13] = test system: Staphylococcus aureus; experiment: Antibacterial activity against Staphylococcus aureus NCTC 10788 assessed as growth inhibition at 1 to 50 mg/mL after 24 hr; assay type: functional, organism-based

| Molecule | zone of inhibition at 50000 µg/mL [2] [mm] | zone of inhibition at 50000 µg/mL [3] [mm] | zone of inhibition at 50000 µg/mL [4] [mm] | zone of inhibition at 50000 µg/mL [5] [mm] | Activity [6] [%] | growth inhibition (GI) [10] | growth inhibition (GI) [11] | growth inhibition (GI) [12] | growth inhibition (GI) [13] | also measured |
| --- | --- | --- | --- | --- | --- | --- | --- | --- | --- | --- |
| O=C(c1ccc(Br)cc1)c1cc2cc(Br)ccc2o1 | 17 | 24 | 15 | 23 | 11.7 |  |  |  |  | MIC [1]: 50 µg/mL (≈ 132 µM); MIC [7]: 50 µg/mL (≈ 132 µM); MIC [8]: 50 µg/mL (≈ 132 µM); MIC [9]: 50 µg/mL (≈ 132 µM) |
| CCOc1ccccc1-c1ccc(C(O)(Cc2ccccc2)c2cc3cc(-c4ccccc4OCC)ccc3o2)cc1 (stereo not drawn) |  |  |  |  | 16.4 | inactive | inactive | inactive | inactive |  |
| CCc1ccc(-c2ccc(C(=O)c3cc4cc(-c5ccc(CC)cc5)ccc4o3)cc2)cc1 |  |  |  |  | 17.3 |  |  | inactive |  |  |
| CC(=O)c1ccccc1-c1ccc(C(=O)c2cc3cc(-c4ccccc4C(C)=O)ccc3o2)cc1 | 0 | 10 | 0 | 8 | 19 |  |  | inactive |  | MIC [8]: 100 µg/mL (≈ 218 µM); MIC [9]: 100 µg/mL (≈ 218 µM) |
| O=C(c1ccc(-c2cccc([N+](=O)[O-])c2)cc1)c1cc2cc(-c3cccc([N+](=O)[O-])c3)ccc2o1 | 0 | 7 | 0 | 0 | 19.5 |  |  | inactive |  | MIC [8]: 50 µg/mL (≈ 108 µM) |
| O=C(c1ccc(-c2ccccc2)cc1)c1cc2cc(-c3ccccc3)ccc2o1 | 0 | 22 | 10 | 15 | 7.3 |  |  | inactive |  | MIC [7]: 10 µg/mL (≈ 26.7 µM); MIC [8]: 10 µg/mL (≈ 26.7 µM); MIC [9]: 1 µg/mL (≈ 2.67 µM) |
| CC1(C)S[C@@H]2[C@H](NC(=O)[C@H](N)c3ccccc3)C(=O)N2[C@H]1C(=O)O [AMPICILLIN] | 20 | 15 | 0 | 16 |  |  |  |  |  |  |
| CCOc1ccccc1-c1ccc(C(O)(c2cc3cc(-c4ccccc4OCC)ccc3o2)C(C)C)cc1 (stereo not drawn) |  |  |  |  | 11.4 | inactive | inactive | inactive | inactive |  |
| CCc1ccc(-c2ccc(C(O)c3cc4cc(-c5ccc(CC)cc5)ccc4o3)cc2)cc1 (stereo not drawn) |  |  |  |  | 55.7 | inactive | inactive | inactive | inactive |  |
| NYSTATIN |  |  |  |  |  |  |  |  |  | inhibition zone (IZ) [2]: 0 mm; inhibition zone (IZ) [3]: 0 mm; inhibition zone (IZ) [5]: 0 mm |
| CCC(O)(c1ccc(-c2ccccc2)cc1)c1cc2cc(-c3ccccc3)ccc2o1 (stereo not drawn) |  |  |  |  | 12.9 | inactive | inactive | inactive | inactive |  |
| N#Cc1ccc(Cl)c(-c2ccc(C(=O)c3cc4cc(-c5cc(C#N)ccc5Cl)ccc4o3)cc2)c1 |  |  |  |  | 15.8 | inactive | inactive | inactive | inactive |  |
| OC(c1ccc(-c2ccccc2)cc1)c1cc2cc(-c3ccccc3)ccc2o1 (stereo not drawn) |  |  |  |  | 79.5 | inactive | inactive | inactive | inactive |  |
| CCc1ccc(-c2ccc(C(O)(c3cc4cc(-c5ccc(CC)cc5)ccc4o3)C(C)(C)C)cc2)cc1 (stereo not drawn) |  |  |  |  | 24.2 | inactive | inactive | inactive | inactive |  |
| Cc1cc(C(C)(C)C)c(O)c(C(C)(C)C)c1 |  |  |  |  | 90.4 |  |  |  |  |  |
| CCOc1ccccc1-c1ccc(C(O)(c2cc3cc(-c4ccccc4OCC)ccc3o2)C(C)(C)C)cc1 (stereo not drawn) |  |  |  |  | 21.2 | inactive | inactive | inactive | inactive |  |
